# Source: patent US5534533A, “Carboxylate derivatives exhibiting phospholipase A2 inhibitory activity” (Shionogi & Co., Ltd., priority 1993, dated 1996)
# Structures can show the parent of a compound that is named as a salt.
# Key:
# [1] = target: T1, Human secretory PLA2 (Homo sapiens, UniProt P14555); assay: Secretory PLA2 inhibitory activity (diheptanoyl thio PC substrate, absorbance at 405 nm); assay type: biochemical; conditions: diheptanoyl thio PC 1 mM, Triton X100 0.3 mM, pH 7.3, CaCl2 10 mM, 30 minutes, read-out: s-PLA2 Inhibition IC50
# T1 sequence (P14555 21-144): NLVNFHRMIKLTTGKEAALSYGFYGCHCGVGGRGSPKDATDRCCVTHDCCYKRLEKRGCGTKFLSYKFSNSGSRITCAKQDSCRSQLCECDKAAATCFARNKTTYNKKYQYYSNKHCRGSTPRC
# Protocol: Secretory PLA2 activity was assayed according to the method described in Penynolds L. J., Hughes L. L., Dennis E. A. et al. Anal. Biochem. 201,190-197 (1992).
# Diheptanoyl thiophosphatidylcholine which was prepared according to the procedure described in the literature was used as a substrate. Human secretory PLA2 was used as an enzyme. The diheptanoyl thio PC (1 mM) was reacted with the human secretory PLA2 in the presence of Triton X100 (0.3 mM) and 5,5'-dithiobis-(2-nitrobenzoic acid) (125 μM) in Tris buffer (25 mM, pH 7.3), CaCl2 (10 mM), KCI (100 mM), bovine serum albumin (1.0 mg/ml), and then the change in absorbance at 405 nm at the time of 30 minutes after the reaction was assayed.
# Inhibitory activity (%) was estimated by the formula: [(the change in absorbance with the inhibitor and PLA2 ·the change in absorbance with the inhibitor and without PLA2)/(the change in absorbance without the inhibitor and with PLA2 ·the change in absorbance without the inhibitor and PLA2)]×100.
# IC50 value (μM) was calculated from graph showing inhibitory values on the vertical axis and log of concentrations of the inhibitor on the horizontal axis.
# [2] = target: T2, intracellular PLA2 (cytosolic PLA2, cPLA2) (Homo sapiens, UniProt P47712); assay: Intracellular PLA2 (cPLA2) inhibitory activity (14C-arachidonyl phosphatidylcholine substrate); assay type: biochemical; conditions: 2 μM radiolabelled phosphatidylcholine, 1 μM dioleoylglycerol, 1 mM CaCl2, pH 7.4; read-out: c-PLA2 Inhibition IC50
# T2 sequence (P47712 1-749): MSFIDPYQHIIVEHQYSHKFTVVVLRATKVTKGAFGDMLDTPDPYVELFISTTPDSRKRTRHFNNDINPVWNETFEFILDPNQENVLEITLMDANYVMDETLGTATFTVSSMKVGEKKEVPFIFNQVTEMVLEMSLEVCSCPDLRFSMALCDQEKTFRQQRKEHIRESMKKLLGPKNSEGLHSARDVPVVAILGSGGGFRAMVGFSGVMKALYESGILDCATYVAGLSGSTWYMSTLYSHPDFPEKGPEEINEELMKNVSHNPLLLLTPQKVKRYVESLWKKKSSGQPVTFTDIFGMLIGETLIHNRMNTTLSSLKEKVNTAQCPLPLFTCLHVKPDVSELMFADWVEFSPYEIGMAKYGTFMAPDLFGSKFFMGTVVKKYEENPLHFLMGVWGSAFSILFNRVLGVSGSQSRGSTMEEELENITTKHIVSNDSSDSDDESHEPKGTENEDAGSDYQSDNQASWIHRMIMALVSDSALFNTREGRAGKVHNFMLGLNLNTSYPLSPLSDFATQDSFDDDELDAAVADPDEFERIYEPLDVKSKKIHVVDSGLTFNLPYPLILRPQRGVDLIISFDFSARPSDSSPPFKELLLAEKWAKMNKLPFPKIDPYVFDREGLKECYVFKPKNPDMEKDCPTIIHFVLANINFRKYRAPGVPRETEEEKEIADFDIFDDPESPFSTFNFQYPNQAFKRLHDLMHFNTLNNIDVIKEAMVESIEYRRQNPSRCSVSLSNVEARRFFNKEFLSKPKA
# Protocol: cPLA2 activity was assayed according to the method described in R. M. Kramer, E. F. Roberts, J. Manetta and J. E. Putnam, J. Biol. Chem., 268 (8), 5268-5272 (1991). Briefly, intracellular PLA2 activity was assayed using supersonic treated […] which contain 1-palmitoyl-2-[^14 C]arachidonyl-sn-glycero-3-phosphocholine and sn-1, 2-dioleoylglycerol at a molar ratio of 2:1. This test mixture contained 1 mM CaCl2, 2 mM dithiothreitol, 150 mM NaCl, 50 mM Hepes, pH 7.4 and 0.1 mg/ml BSA. A substrate is a 2 μM radioisotope labelled phosphatidylcholine ribosome containing 1 μM dioleoylglycerol. IC50 value is calculating in the same manner as in calculating it for secretory PLA2 inhibitory activity.
smiles,measurement,setting,value
"COc1c(C)c(OC(=O)c2c(C)c(C)c(OCCC3=CCC4CC3C4(C)C)c(C)c2OC)c(C)c(C)c1C(=O)O (single isomer, unassigned) [Example 49, 4-{4-[2-(6,6-Dimetheylbicyclo[3.1.1]hept-2-en-2-yl)ethoxy]-2-methoxy-3,5,6-trimethylbenzoyloxy}-2-methoxy-3,5,6-trimethylbenzoic Acid]",IC50,[1],44 µM
same,IC50,[2],4.1 µM
"COc1c(C)c(OC(=O)c2c(C)c(C)c(OCCCCCCOc3ccc(C(F)(F)F)cc3)c(C)c2OC)c(C)c(C)c1C(=O)O [Example 3, 4-[4-[6-(4-Trifluoromethylphenoxy)hexyloxy]-2-methoxy-3,5,6-trimethylphenylcarboxy]-2-methoxy-3,5,6-trimethylbenzoic acid]",IC50,[1],32 µM
same,IC50,[2],3 µM
"COc1c(C)c(OC(=O)c2c(C)c(C)c(OCCCCCCOc3ccc(F)cc3)c(C)c2OC)c(C)c(C)c1C(=O)O [Example 4, 4-[4-[6-(4-Fluorophenoxy)hexyloxy]-2-methoxy-3,5,6-trimethylphenylcarboxy]-2-methoxy-3,5,6-trimethylbenzoic acid]",IC50,[1],27 µM
same,IC50,[2],7.4 µM
"COc1c(C)c(OC(=O)c2c(C)c(C)c(OCCCCCCSc3ccc(F)cc3)c(C)c2OC)c(C)c(C)c1C(=O)O [Example 5, 4-[4-[6-(4-Fluorophenylthio)hexyloxy]-2-methoxy-3,5,6-trimethylphenylcarboxy]-2-methoxy-3,5,6-trimethylbenzoic acid]",IC50,[1],47 µM
same,IC50,[2],4 µM
"COc1c(C)c(OC(=O)c2c(C)c(C)c(OCCCCCCS(=O)(=O)c3ccc(F)cc3)c(C)c2OC)c(C)c(C)c1C(=O)O [Example 6, 4-[4-[6-(4-Fluorophenylsulfonyl)hexyloxy]-2-methoxy-3,5,6-trimethylphenylcarboxy]-2-methoxy-3,5,6-trimethylbenzoic acid]",IC50,[1],9 µM
same,IC50,[2],12 µM
"COc1c(C(C)(C)C)cc(SCCCOc2c(C)c(C)c(C(=O)Oc3c(C)c(C)c(C(=O)O)c(OC)c3C)c(OC)c2C)cc1C(C)(C)C [Example 7, 4-[4-[3-(3,5-Di-tert-butyl-4-methoxyphenylthio)propyloxy]-2-methoxy-3,5,6-trimethylphenylcarboxy]-2-methoxy-3,5,6-trimethylbenzoic acid]",IC50,[1],> 50 µM
same,IC50,[2],0.54 µM
"COc1c(C)c(OC(=O)c2c(C)c(C)c(OCc3ccc(F)cc3)c(C)c2OC)c(C)c(C)c1C(=O)O [Example 8, 4-[4-(4-Fluorobenzyloxy)-2-methoxy-3,5,6-trimethylphenylcarboxy]-2-methoxy-3,5,6-trimethylbenzoic acid]",IC50,[1],22 µM
same,IC50,[2],31 µM
"COc1c(C)c(OC(=O)c2c(C)c(C)c(OCc3ccccc3)c(C)c2OC)c(C)c(C)c1C(=O)O [Example 9, 4-[4-Benzyloxy-2-methoxy-3,5,6-trimethylphenylcarboxy)2-methoxy-3,5,6-trimethylbenzoic acid]",IC50,[1],45 µM
same,IC50,[2],33 µM
"COc1c(C)c(OC(=O)c2c(C)c(C)c(OCCCSc3ccc(F)cc3)c(C)c2OC)c(C)c(C)c1C(=O)O [Example 10, 4-[4-[3-(4-Fluorophenylthio)propyloxy]-2-methoxy-3,5,6-trimethylphenylcarboxy]-2-methoxy-3,5,6-trimethylbenzoic acid]",IC50,[1],13 µM
same,IC50,[2],13 µM
"COc1c(C)c(OC(=O)c2c(C)c(C)c(OCCCCCCOc3ccc(Cl)cc3)c(C)c2OC)c(C)c(C)c1C(=O)O [Example 11, 4-[4-[6-(4-Chlorophenoxy)hexyloxy]-2-methoxy-3,5,6-trimethylphenylcarboxy]-2-methoxy-3,5,6-trimethylbenzoic acid]",IC50,[1],14 µM
same,IC50,[2],4.8 µM
"COc1c(C(C)(C)C)cc(SCCCCCCOc2c(C)c(C)c(C(=O)Oc3c(C)c(C)c(C(=O)O)c(OC)c3C)c(OC)c2C)cc1C(C)(C)C [Example 12, 4-[4-[6-(3,5-Di-tert-butyl-4-methoxyphenylthio)hexyloxy]-2-methoxy-3,5,6-trimethylphenylcarboxy]-2-methoxy-3,5,6-trimethylbenzoic acid]",IC50,[1],> 50 µM
same,IC50,[2],2 µM
"COc1c(C(C)(C)C)cc(SCCCCCCOc2c(C)c(C)c(C(=O)O)c(OC)c2C)cc1C(C)(C)C [Example 13, 4-[6-(3,5-Di-tert-butyl-4-methoxyphenylthio)hexyloxy]-2-methoxy-3,5,6-trimethylbenzoic acid]",IC50,[1],> 50 µM
same,IC50,[2],1.9 µM
"COc1c(C)c(OC(=O)c2c(C)c(C)c(OCCCOc3ccc(F)cc3F)c(C)c2OC)c(C)c(C)c1C(=O)O [Example 14, 4-[4-[3-(2,4-difluorophenoxy)propyloxy]-2-methoxy-3,5,6-trimethylphenylcarboxy]-2-methoxy-3,5,6-trimethylbenzoic acid]",IC50,[1],14 µM
same,IC50,[2],9.4 µM
"COc1c(C(C)(C)C)cc(SCCCOc2c(C)c(C)c(C(=O)O)c(OC)c2C)cc1C(C)(C)C [Example 16, 4-[3-(3,5-Di-tert-butyl-4-methoxyphenylthio)propyloxy]-2-methoxy-3,5,6-trimethylbenzoic acid]",IC50,[1],> 50 µM
same,IC50,[2],2.6 µM
"COc1ccc(OCCCOc2c(C)c(C)c(C(=O)Oc3c(C)c(C)c(C(=O)O)c(OC)c3C)c(OC)c2C)cc1 [Example 17, 4-[4-[3-(4-Methoxyphenoxy)propyloxy]-2-methoxy-3,5,6-trimethylphenylcarboxy]-2-methoxy-3,5,6-trimethylbenzoic acid]",IC50,[1],12 µM
same,IC50,[2],14 µM
"COc1c(C)c(OCCCOc2ccc3ccccc3c2)c(C)c(C)c1C(=O)O [Example 18, 2-Methoxy-3,5,6-trimethyl-4-[3-(2-naphthyloxy)-propyloxy]benzoic acid]",IC50,[1],> 50 µM
same,IC50,[2],19 µM
"COc1c(C)c(OC(=O)c2c(C)c(C)c(OCCCOc3ccc4ccccc4c3)c(C)c2OC)c(C)c(C)c1C(=O)O [Example 19, 4-[2-Methoxy-3,5,6-trimethyl-4-[3-(2-naphthyloxy)-propyloxy]phenylcarboxy]-2-methoxy-3,5,6-trimethylbenzoic acid]",IC50,[1],16 µM
same,IC50,[2],1.8 µM
"COc1ccc(OCCCOc2c(C)c(C)c(C(=O)Oc3c(C)c(C)c(C(=O)O)c(OC)c3C)c(OC)c2C)cc1OC [Example 20, 4-[4-[3-(3,4-Dimethoxyphenoxy)propyloxy]-2-methoxy-3,5,6-trimethylphenylcarboxy]-2-methoxy-3,5,6-trimethylbenzoic acid]",IC50,[1],11 µM
same,IC50,[2],35 µM
"COc1cc(OCCCOc2c(C)c(C)c(C(=O)Oc3c(C)c(C)c(C(=O)O)c(OC)c3C)c(OC)c2C)c(C(c2ccccc2)c2ccccc2)cc1OC [Example 21, 4-[4-[3-(2-Benzhydryl-4,5-dimethoxyphenoxy)propyloxy]-2-methoxy-3,5,6-trimethylphenylcarboxy]-2-methoxy-3,5,6-trimethylbenzoic acid]",IC50,[1],15 µM
same,IC50,[2],1.4 µM
"COc1c(C)c(OC(=O)c2c(C)c(C)c(OCCCNc3ccc(C(F)(F)F)cc3)c(C)c2OC)c(C)c(C)c1C(=O)O [Example 22, 4-[4-[3-(4-Trifluoromethylphenylamino)propyloxy]-2-methoxy-3,5,6-trimethylphenylcarboxy]-2-methoxy-3,5,6 trimethylbenzoic acid hydrochloride]",IC50,[1],42 µM
same,IC50,[2],4.3 µM
